Experimental data reported in patent US7754696B2 (Pharmaceutical Solutions, Inc., priority 2001, dated 2010).

Columns and labels:
[1] = tested on: foul mites; experiment: Treatment of a poultry flock via drinking water, mites; type: in vivo; details: 10000 head flock, 5 percent concentration mixture in water, administered over 12 hours, 180 ug per kg
Procedure: (§1) 400 cc of a 5 percent concentration mixture was added to 5 gallons of water to form a stock solution that was administered over 12 hours at a dose of 180 ug per kg.

[2] = room temperature; cited from earlier work
[3] = tested on: round worms; experiment: Treatment of swine via drinking water, fecal examinations pre and post treatment; type: in vivo; details: 1000 100-pound pigs, 5 percent solution in 10 gallons of water stock solution
Procedure: This is 20 mg per 100 pounds or 200 ug per pound.

[4] = cited from earlier work
[5] = tested on: round worms; experiment: Treatment of a poultry flock via drinking water, round worms; type: in vivo; details: 10000 head flock, 5 percent concentration mixture in water, administered over 12 hours, 180 ug per kg
Procedure: as §1

[6] = cited from earlier work; remark: listed apart in the source

Compound: CC[C@H](C)[C@H]1O[C@]2(CC[C@@H]1C)C[C@@H]1C[C@@H](C/C=C(\C)C(O[C@H]3C[C@H](OC)[C@@H](O[C@H]4C[C@H](OC)[C@@H](O)[C@H](C)O4)[C@H](C)O3)[C@@H](C)/C=C/C=C3\CO[C@@H]4[C@H](O)C(C)=C[C@@H](C(=O)O1)[C@]34O)O2 (stereo partly drawn) [Ivermectin, 22,23 dihydroavermectin Bla]
- elimination of mites from the birds [1]: 100%
- solubility in water [2]: about 0.005 mg per ml
- reduction in round worms based on fecal examinations [3]: 98%
- bound to plasma proteins [4]: about 93%
- elimination of worms from the birds [5]: 100%
- apparent volume of distribution ([6]; adults): about 47 liters
- systemic clearance ([6]; adults): about 1.2 liters/hour
- terminal half-life ([6]; adults): about 27 hours
- time to peak levels in plasma ([6]; human beings, oral administration): ≤ 4 h
